Source: patent US11135163B2, “Peptide hydrogel properties and its applications” (Kansas State University Research Foundation, priority 2014, dated 2021)
Where two headings read alike, the source gives them in different places.

Legend:
[1] = h9e-2i medium hydrogel rheology and stability; type: physicochemical
Procedure: Two different types of stem cell mediums were selected for this test. One is a low glucose DMEM medium with 2% (v/v) Fetal Bovine Serum (FBS) for Mesenchymal Stromal Cell (MSC medium). The other one is a N2B27 supplemented serum-free 2i medium with 0.5% (v/v) Bovine Serum Albumin (BSA) for rat Embryonic Stem Cell (ESC, 2i medium). The hydrogel formation process was monitored under a time sweep rheological test for 1 hour. The special shear-thinning and self-healing property of h9e peptide hydrogel was also tested. […] In addition, the stability of hydrogel as well as the peptide solution before the hydrogel formation was also tested.
The h9e peptide was synthesized according to the method mentioned above. Lyophilized peptide was added to 100 mM sodium bicarbonate and completely dissolved by magnetic stirring for 3 hours with a final peptide concentration of 10 mM. For hydrogelation, peptide solution was added into MSC medium or 2i medium and the mixture was hand-shaken for about 10 seconds or gently pipette mixed 3 times. The final peptide concentrations were 1, 2, and 3 mM.
The storage and loss moduli (G′ and G″, respectively) of h9e hydrogels were determined on a C-VOR 150 rheometer system (Malvern instruments, Malvern, Worcestershire WR141XZ, United Kingdom) with a 20-mm diameter parallel plate geometry and 500 μm gap size at 37° C. The methods for hydrogel formation test and shear-thinning and self-healing test were the same as the methods of cancer cell medium mentioned above. After 24 hours of hydrogel formation, 2 mM peptide hydrogel was diluted 20 fold by adding cell culture medium and thorough mixing by pipette. The diluted solution was transferred to rheometer system and tested under 1 Hz frequency and 1% shear strain at 4° C. for 1 hour.
The stability of h9e-2i medium hydrogel was tested. A plastic tray was placed on the bottom of the well plate. Next, 1 wt % h9e solution was mixed with 2i medium at 1:1 (v:v) ratio in a centrifuge tube and then transferred into the well plate. There was 500 μl peptide hydrogel for each well. The well plate was then placed in an incubator for 1 hour. After hydrogel was stable, another 500 μl of 2i medium was slowly added on the top of hydrogel. The top medium was replaced every other day. For mechanical testing, the top 2i medium was removed and hydrogel was transferred to a dynamic rheometer using the tray. The stability of the peptide solution was also tested using 1 wt % peptide solution stored in 4° C. refrigerator for up to 24 days. Part of the peptide solution was taken out and mixed with 2i medium with 1:1 (v:v) ratio on days 1, 6, 18 and 24. The hydrogel formation process was monitored under the single frequency (1 Hz) rheological test with 1% shear strain for 1 hour.

[2] = Hydrogel formation and gelation time sweep of h9e with commercial mouse blood; conditions: all concentrations except 1%
Procedure: About 150 μL of the appropriate wt % of peptide solution was added to 150 μL of commercial mouse blood in a small vial. The mixture was pipetted 5 times to ensure continuity and observed for visual hydrogel formation. Visual observation of hydrogel formation was recorded via a Nikon Coolpix L22 camera (FIG. 9).
Hydrogel gelation time sweep (instantaneous): A time sweep was conducted on the hydrogel and commercial mouse blood mixture. 150 μL of the appropriate wt % of peptide solution was added to 150 μL of commercial mouse blood in a small vial. The mixture was pipetted about 5 times to ensure continuity and added to the rheometer for evaluation. Both storage and loss moduli, G′ and G″ respectively, of the h9e/blood hydrogel were determined using a C-VOR 150 rheometer (Malvern Instruments, Malvern, Worcestershire, United Kingdom). A plate 20 mm in diameter was used with 1% strain and frequency of 1 Hz at a 37° C. temperature for 30 minutes.
Hydrogel stability gelation time sweep (24 hours post gelatinization): A time sweep was conducted on the hydrogel and commercial mouse blood mixture. 24 hours post gelation. […] Both storage and loss moduli, G′ and G″ respectively, of the h9e/blood hydrogel was determined using a C-VOR 150 rheometer (Malvern Instruments, Malvern, Worcestershire, United Kingdom). […]

[3] = test system: female mice of FVB; test: Immune response after subcutaneous injection of hydrogel in mice; type: in vivo, mouse
Procedure: Hydrogel: 1% h9e peptide was prepared in sodium bicarbonate solution, and 1% BSA was prepared in PBS solution as trigger solution. The h9e peptide solution and BSA solution was mixed at 1:1 volume ratio, and incubated at 37° C. for 30 min to prepare hydrogel with 0.5% h9e peptide concentration and 0.5% BSA with a gel strength of about 450 Pa.
Experiment: In trials #1 and #2, healthy female mice of FVB 6-15 week old were injected subcutaneously in the inguinal region with 100 or 200 uL of the hydrogel or control solutions in a blinded study. Weight and external body temperature were measured daily for up to 2 weeks.
Mammary fat pads from the inguinal region were removed at necropsy. Tissues were fixed with 10% formalin and processing for a 5 um thickness sectioning. Samples were stained with hematoxylin and eosin (H&E). Hydrogel trial 3 was completed in the same manner described above with the following exceptions. 200 uL of hydrogel or control solutions were injected subcutaneously on the back of the animal.
Microscope slide preparation: Samples of the control, and hydrogel treated tissues were submitted for histopath processing at Diagnostic Laboratory at KSU Veterinary School in Mosier Hall. Slides and paraffin blocks were labeled 1 as control and 4 as hydrogel treated, respectively. Adipose tissue samples were processed on the Sakua Tissue-Tek VIP 6, model #VIP6-A1. Then, the samples were then embedded using the Sakura Tissue-Tek Tissue Embedding Console System model #4710. For microscope slide preparation, the paraffin blocks were cut on a 1215 Leitz Rotary Microtome and sectioned at 5 microns. Sections were then mounted on a microscope slide from a water bath. H&E staining of the slides done on an automated stainer, Leica Autostainer XL, model #ST5060. Lastly, the stained slides are covered slipped by an automatic coverslippper, Leica CV5030.
Inflammatory analysis: The fixed tissues of animals without treatment, treated with PBS buffer and h9e hydrogel were further analyzed for inflammatory effects including VWF8 (blood vessel), Arginase I (wound healing macrophage), Fspl and α-smooth muscle actin (fibroblast), CCL2 (pro-inflammatory cytokine), and TGF-beta (immunosuppressive cytokine). 796 (FVB normal mammary gland) was used as negative control. Image J arbitrary unit was used to evaluate these tests using Image J software.

[4] = Hydrogelation and dynamic rheology of h9e in MEM; type: physicochemical; conditions: MEM without serum

Substance: H-FLIVIGSIIGPGGDGPGGD-NH2 [h9e, FLIVIGSIIGPGGDGPGGD]
- stability of h9e solution [1]: exceed 2 months
- G′ ([1]; 1 mM h9e-2i hydrogel): about 100 Pa
- G′ after shearing into liquid state ([1]; 2 mM h9e-2i hydrogel): < 0.2 Pa
- stable G′ ([1]; 2 mM h9e-2i hydrogel): 600 Pa
- mechanical strength restored ([1]; 2 mM h9e-2i hydrogel, within a few minutes of recovery test): 100%
- stable G′ ([1]; 3 mM h9e-2i hydrogel): 600 Pa
- G′ of h9e-2i hydrogel during 7 days (stability) ([1]; 1 wt % h9e solution mixed 1:1 with 2i medium): 130-160 Pa
- stability of h9e solution ([1]; stored at 4° C. for 24 days, then mixed with 2i medium): could still form a hydrogel
- viscosity, strength and stability 24 hours post gelation versus instantaneous [2]: increased
- inflammatory effects compared to controls ([3]; 0.5% h9e/0.5% BSA hydrogel, subcutaneous, mice): No significant inflammatory effects
- histological images, hydrogel treated versus control ([3]; H&E staining): no significant difference
- absorption of hydrogel at necropsy ([3]; trial 3, 200 uL subcutaneously on the back): complete absorption of hydrogel
- daily activity of treated animals ([3]; up to 2 weeks): same normal daily activity
- solution to hydrogel transition [4]: did not stimulate this solution to hydrogel transitions effectively
